# Reference: article PMC9295122, “Sialic Acid Derivatives Inhibit SiaT Transporters and Delay Bacterial Growth” (ACS Chemical Biology, 2022)
# Columns and labels:
# [1] = Plasma-protein binding by RED, human; assay type: in vitro ADME; conditions: pH 7.2, read-out: Plasma-protein binding by RED (% unbound compound, average n=2)
# Description: The assay was run in a deep well plate containing RED inserts with semipermeable dialysis membranes. The reaction was started by adding the compounds to a blank plasma in a 5 μM concentration. Opposite to the blank plasma was a compartment containing isotonic sodium–phosphate buffer (pH 7.2) separated from the plasma by the membrane. The plate was equilibrated in a water bath at 37 °C for 4 h. Samples from both the plasma and the buffer side were matrix compensated before protein precipitation. The samples were centrifuged, and the supernatants were diluted and analyzed by LC–MS/MS to determine the % unbound compound. Two incubations per compound per species.
# [2] = Metabolic stability in mouse liver microsomes; assay type: in vitro ADME; conditions: for Metabolic stability in mouse microsomes, Exp. 1 / Metabolic stability in mouse microsomes, Exp. 2: intrinsic clearance, 1 µM compound; for microsomal CLint at 1 µM: mouse liver microsomes, read-out: intrinsic clearance Clint
# Description: The assay was run in a 96-deep well format and solutions were prepared containing microsomes in phosphate buffer. The microsomes employed were from humans, rats, and mice. The reaction was initiated by addition of NADPH after preincubation at 37 °C with test compounds. The reaction was stopped by the addition of acetonitrile (ACN) at six time points (0, 5, 10, 15, 25, and 45 min), the samples were centrifuged, and the supernatant was diluted to determine the loss of compound by LC–MS/MS. Two incubations per compound per species. For further details regarding working concentrations, volumes, and final concentrations at incubation, refer to the supplementary section (Table S6). […]
# Conc. of W orki ng Vol ume i n Fi nal conc. At
# sol uti on assay incubation
# 577 m g / m L520 µ L0. 5 m g / m L […]
# NADPH i n buffe r 7. 5 m M 80 µ L 1 m M
# [3] = Plasma stability, mini pig; assay type: in vitro ADME; conditions: 1 μM, 37 °C
# Description: The reaction was started by the addition of the compound to blank plasma in LC vials after preincubation at 37 °C. The initial compound concentration was 1 μM. The reaction was stopped by the addition of ACN at seven time points (0, 0.5, 1, 2, 4, 6, and 23 h). Time point 0 h was about 15–20 s after spiking the plasma with the compound. The samples were centrifuged and the supernatant diluted and analyzed by LC–MS/MS to determine the % of compound remaining relative to the initial concentration of compound.
# [4] = target: T1, PmSiaT (Proteus mirabilis, UniProt B4EZY7); assay: [3H]Neu5Ac efflux in proteoliposomes, PmSiaT; assay type: biochemical; conditions: 0.1 mM external compound
# T1 construct: made in house
# T1 sequence (B4EZY7 1-496): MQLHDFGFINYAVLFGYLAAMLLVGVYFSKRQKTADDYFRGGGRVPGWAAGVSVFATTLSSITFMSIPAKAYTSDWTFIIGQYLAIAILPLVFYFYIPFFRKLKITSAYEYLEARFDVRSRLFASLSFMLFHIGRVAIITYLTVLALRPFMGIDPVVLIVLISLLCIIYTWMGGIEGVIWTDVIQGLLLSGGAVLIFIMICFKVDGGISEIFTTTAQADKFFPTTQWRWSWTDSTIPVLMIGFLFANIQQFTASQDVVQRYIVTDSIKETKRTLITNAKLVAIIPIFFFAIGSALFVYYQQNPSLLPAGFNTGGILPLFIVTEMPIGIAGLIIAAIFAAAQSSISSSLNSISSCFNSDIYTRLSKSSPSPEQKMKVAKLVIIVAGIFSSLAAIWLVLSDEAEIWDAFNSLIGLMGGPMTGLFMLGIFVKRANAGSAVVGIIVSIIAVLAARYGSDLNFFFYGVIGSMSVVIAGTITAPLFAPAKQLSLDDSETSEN
# Description: Figure 5 Kinetic analysis of the inhibition of recombinant SiaT from P. mirabilis (A,B) and S. aureus (C,D) reconstituted in proteoliposomes and [^3H]Neu5Ac efflux in proteoliposomes (E,F). (a–d) Data were plotted according to Lineweaver–Burk as a reciprocal transport rate vs reciprocal Neu5Ac concentration. The transport rate was measured, in 5 min, by adding [^3H] Neu5Ac at the indicated concentrations to proteoliposomes containing 20 mM K^+-gluconate in the presence of valinomycin as described in the Supporting Information. [(A,B) P. mirabilis SiaT]; (A) compound 3f 0.25 μM (●) or 0.75 μM (□) was added in comparison to samples without inhibitor (○). (B) Compound 3e 12 μM (●) or 40 μM (□) was added in comparison to samples without an inhibitor (○). [(C,D) S. aureus SiaT]. (C) Compound 3f 80 μM (●) or 200 μM (□) was added in comparison to samples without an inhibitor (○). (D) Compound 3e 5 μM (●) or 12 μM (□) was added in comparison to samples without an inhibitor (○). Results are mean ± s.d. from four independent experiments (n = 4). […] Data are calculated as the percent of residual activity with respect to the control sample (efflux time zero). The results are the means ± s.d. of three independent experiments. […]
# For uptake experiments, 600 μL of proteoliposomes were loaded onto a Sephadex G-75 column (0.7 cm diameter × 15 cm height), pre-equilibrated with 20 mM Hepes Tris pH 7.0 with 40 mM sucrose to balance the internal osmolarity. […] For kinetic measurement, the initial transport rate was measured by stopping the reaction after 5 min, that is, within the initial linear range of [^3H]-Neu5Ac uptake into the proteoliposomes previously described. […] In both uptake and efflux experiments, the transport assay was terminated by loading each proteoliposome sample (100 μL) on a Sephadex G-75 column (0.6 cm diameter × 8 cm height) to remove the external radioactivity. Proteoliposomes were eluted with 1 mL of 50 mM NaCl and collected in a 4 mL of scintillation mixture, vortexed and counted. […]
structure (smiles),measurement,setting,value
CC(=O)NC1C(OCc2ccccc2)CC(O)(C(=O)O)OC1C(O)C(O)CO (stereo not drawn) [Compound 3a],"fraction unbound at 4 h, 5 μM",[1],0.85
same,"Metabolic stability in mouse microsomes, Exp. 1",[2],< 10 µL/min/mg protein
same,"Metabolic stability in mouse microsomes, Exp. 2",[2],< 10 µL/min/mg protein
same,microsomal CLint at 1 µM,[2],< 10 µL/min/mg
same,In vitro plasma stability (% compound remaining after 23 h),[3],100%
CC(=O)NC1C(OCc2cc(F)cc(F)c2)CC(O)(C(=O)O)OC1C(O)C(O)CO (stereo not drawn) [Compound 3e],"fraction unbound at 4 h, 5 μM",[1],0.74
same,"Metabolic stability in mouse microsomes, Exp. 1",[2],< 10 µL/min/mg protein
same,"Metabolic stability in mouse microsomes, Exp. 2",[2],< 10 µL/min/mg protein
same,microsomal CLint at 1 µM,[2],< 10 µL/min/mg
same,In vitro plasma stability (% compound remaining after 23 h),[3],100%
same,[3H]Neu5Ac efflux induced,[4],did not cause any [^3H]Neu5Ac efflux
CC(=O)NC1C(OCc2cc(Br)cc(Br)c2)CC(O)(C(=O)O)OC1C(O)C(O)CO (stereo not drawn) [Compound 3f],"fraction unbound at 4 h, 5 μM",[1],0.27
same,"Metabolic stability in mouse microsomes, Exp. 1",[2],< 10 µL/min/mg protein
same,"Metabolic stability in mouse microsomes, Exp. 2",[2],< 10 µL/min/mg protein
same,microsomal CLint at 1 µM,[2],< 10 µL/min/mg
same,In vitro plasma stability (% compound remaining after 23 h),[3],39%
same,[3H]Neu5Ac efflux induced,[4],did not cause any [^3H]Neu5Ac efflux
"CC(=O)N[C@H]1[C@H]([C@H](O)[C@H](O)CO)OC(O)(C(=O)O)C[C@@H]1O (stereo partly drawn) [Neu5Ac, 5-N-acetyl neuraminic acid, reference compound]",[3H]Neu5Ac efflux induced,[4],slow but measurable counter flow
